Data published in patent publication US7825256B2, “Inducible nitric oxide synthase dimerization inhibitors” (Kalypsys, Inc., priority 2004, dated 2010).
pEC50: −log10 of the molar value.

What was measured:
hiNOS = target: T1, hiNOS (Homo sapiens, UniProt P35228); assay: DAN assay, hiNOS expressed in transiently transfected HEK293 cells; assay type: cell-based; settings: HEK293 cells transiently transfected with hiNOS
T1 construct: expressed in transfected cells; host or cells: HEK293
Method in brief: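 Human iNOS, nNOS or eNOS transiently expressed in HEK293 cells, with nNOS and eNOS needing added cofactors for activity. NO production is read as nitrite by fluorometry: 2,3-diaminonaphthalene forms fluorescent […], detecting 10 nM to 10 μM nitrite.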

rat = assay: Capsaicin test (topical capsaicin allodynia); assay type: in vivo
From the text: Subcutaneous injection of dilute capsaicin into the rat hind paw produces transient but pronounced hyperalgesia, allodynia and pain. This effect may be mitigated by pretreatment with a suitable agent, such as a topical anaesthetic or analgesic, and the extent of this mitigation quantified by evaluation of pain-related behaviors in response to noxious or innocuous stimuli as described above; rats pretreated with a known analgesic display fewer pain and allodynia related behaviors than controls. Compounds may be evaluated for their efficacy as potential analgesics in this manner as well.
Male Lewis rats weighing between 180 and 250 grams are used. The right hind paw is dipped into vehicle (100% acetone) or compound in vehicle for 30 seconds and then allowed to air-dry for 30 sec. To prevent the animal from licking the compound off the paw, the paw is wiped twice with a wet paper towel. At 15 min after application of vehicle or compound, 0.1 mg in 10 μL capsaicin is injected into right hind paw. Measurement of allodynia is performed 0.5 to 1 hour after capsaicin injection.
One procedure for quantifying allodynia measures the rat behavioral response to presentation of von Frey filaments of increasing diameter. Each rat is placed in a small, clear cage on an elevated screen. Beginning with 4.31, the von Frey hair is presented perpendicularly to the right mid-plantar hind paw with sufficient force to cause slight buckling, for 6-8 seconds. If presentation lifts the hind paw it is disregarded, as it changes the nature of the stimulus. A positive response is noted if the paw is sharply withdrawn upon onset or offset of stimulus. Ambulation is considered an ambiguous response and the presentation is repeated. Stimuli are presented in a consecutive fashion. A positive response would call for the presentation of the immediately weaker weight filament next; likewise, no response would call for the immediately stronger. Presentations continue until a series of six consecutive responses from the first change is logged. The next rat is then tested. This procedure is standard in the art for the measurement of allodynia, but any other method known in the art which provides adequate sensitivity and reproducibility may be substituted.

[1] = at 0.5 hr after capsaicin injection
[2] = at 1 hr after capsaicin injection

Structure (SMILES) | pEC50 (hiNOS) | Topical Capsaicin Allodynia (rat; [1]) | Topical Capsaicin Allodynia (rat; [2])
CN(CCCNCc1ccccc1)c1nc(-n2ccnc2)ns1 [Example 12, N′-Benzyl-N-(3-imidazol-1-yl-[1,2,4]thiadiazol-5-yl)-N-methyl-propane-1,3-diamine] | < 4.30 | − at 0.5 hr ((−) = <15% inhibition) | − at 1 hr ((−) = <15% inhibition)
Cc1cc(CNC(=O)NCCc2ccc3c(c2)OCO3)nc(-n2ccnc2)n1 [Example 13, 1-(2-Benzo[1,3]dioxol-5-yl-ethyl)-3-(2-imidazol-1-yl-6-methyl-pyrimidin-4-ylmethyl)-urea] | > 6.00 | − at 0.5 hr ((−) = <15% inhibition) | + at 1 hr ((+) = >15% inhibition)
CN(CCCN(CC(N)=O)c1nc(-n2ccnc2)ns1)Cc1ccc2c(c1)OCO2 [Example 59, 2-[[3-(Benzo[1,3]dioxol-5-ylmethyl-methyl-amino)-propyl]-(3-imidazol-1-yl-[1,2,4]thiadiazol-5-yl)-amino]-acetamide] | > 6.00 | + at 0.5 hr ((+) = >15% inhibition) | + at 1 hr ((+) = >15% inhibition)
O=C(NCCc1ccc2c(c1)OCO2)[C@H]1CCCN1c1nc(-n2ccnc2)ns1 [Example 29, (R)-1-(3-Imidazol-1-yl-[1,2,4]thiadiazol-5-yl)pyrrolidine-2-carboxylic acid (2-benzo[1,3]dioxol-5-yl-ethyl)-amide] | > 6.00 | − at 0.5 hr ((−) = <15% inhibition) | + at 1 hr ((+) = >15% inhibition)
c1cn(-c2nsc(N(CCCNCc3ccc4c(c3)OCO4)Cc3nccs3)n2)cn1 [Example 49, N′-Benzo[1,3]dioxol-5-ylmethyl-N-(3-imidazol-1-yl-[1,2,4]thiadiazol-5-yl)-N-thiazol-2-ylmethyl-propane-1,3-diamine] | > 6.00 | + at 0.5 hr ((+) = >15% inhibition) | + at 1 hr ((+) = >15% inhibition)
c1csc(CN(CCCNCc2ccc3c(c2)OCO3)c2nc(-n3ccnc3)ns2)c1 [Example 50, N′-Benzo[1,3]dioxol-5-ylmethyl-N-(3-imidazol-1-yl-[1,2,4]thiadiazol-5-yl)-N-thiophen-2-ylmethyl-propane-1,3-diamine] |  | + at 0.5 hr ((+) = >15% inhibition) | + at 1 hr ((+) = >15% inhibition)
Cc1cc(C(C)NCCNCc2ccc3c(c2)OCO3)nc(-n2ccnc2)n1 (stereo not shown) [Example 38, N-Benzo[1,3]dioxol-5-ylmethyl-N′-[1-(2-imidazol-1-yl-6-methyl-pyrimidin-4-yl)-ethyl]-ethane-1,2-diamine] | > 6.00 | + at 0.5 hr ((+) = >15% inhibition) | + at 1 hr ((+) = >15% inhibition)
O=C(NCCc1ccc2c(c1)OCO2)[C@H]1C[C@@H](O)CN1c1nc(-n2ccnc2)ns1 [Example 28, (2R,4R)-4-Hydroxy-1-(3-imidazol-1-yl-[1,2,4]thiadiazol-5-yl)-pyrrolidine-2-carboxylic acid (2-benzo[1,3]dioxol-5-yl-ethyl)-amide] | > 6.00 | + at 0.5 hr ((+) = >15% inhibition) | + at 1 hr ((+) = >15% inhibition)
Cc1cc(CNC(=O)C2CCCN2Cc2ccc3c(c2)OCO3)nc(-n2ccnc2)n1 (stereo not shown) [Example 116, 1-Benzo[1,3]dioxol-5-ylmethyl-pyrrolidine-2-carboxylic acid (2-imidazol-1-yl-6-methyl-pyrimidin-4-ylmethyl)-amide] | < 4.30 |  | 
CCOC(=O)C(CC(=O)NCCc1ccc2c(c1)OCO2)c1nc(-n2ccnc2)ns1 (stereo not shown) [Example 67, N-(2-Benzo[1,3]dioxol-5-yl-ethyl)-2-(3-imidazol-1-yl-[2,4]thiadiazol-5-yl)-succinamic acid ethyl ester] | > 6.00 |  | 
CN(C)c1ccc(CN(CCCNCc2ccc3c(c2)OCO3)c2nc(-n3ccnc3)ns2)cc1 [Example 105, N-Benzo[1,3]dioxol-5-ylmethyl-N′-(4-dimethylamino-benzyl)-N′-(3-imidazol-1-yl-[1,2,4]thiadiazol-5-yl)-propane-1,3-diamine] | > 6.00 |  | 
CN(CCNCc1ccc2c(c1)OCO2)c1nc(-n2ccnc2)ns1 [Example 47, N′-Benzo[1,3]dioxol-5-ylmethyl-N-(3-imidazol-1-yl-[1,2,4]thiadiazol-5-yl)-N-methyl-ethane-1,2-diamine] | > 6.00 |  | 
CC(NCCNCc1ccc2c(c1)OCO2)c1nc(-n2ccnc2)ns1 (stereo not shown) [Example 64, N-Benzo[1,3]dioxol-5-ylmethyl-N′-[1-(3-imidazol-1-yl-[1,2,4]thiadiazol-5-yl)-ethyl]-ethane-1,2-diamine] | > 6.00 |  | 
CN(CCCNCc1cc2ccccc2n1C)c1nc(-n2ccnc2)ns1 [Example 19, N-(3-Imidazol-1-yl-[1,2,4]thiadiazol-5-yl)-N-methyl-N′-(1-methyl-1H-indol-2-ylmethyl)-propane-1,3-diamine] | < 4.30 |  | 
Cc1cc(C2CCCN2CC(=O)NCc2ccc3c(c2)OCO3)nc(-n2ccnc2)n1 (stereo not shown) [Example 37, N-Benzo[1,3]dioxol-5-ylmethyl-2-[2-(2-imidazol-1-yl-6-methyl-pyrimidin-4-yl)-pyrrolidin-1-yl]-acetamide] | > 6.00 |  | 
CN(CCCCNCc1ccc2c(c1)OCO2)c1nc(-n2ccnc2)ns1 [Example 48, N′-Benzo[1,3]dioxol-5-ylmethyl-N-(3-imidazol-1-yl-[1,2,4]thiadiazol-5-yl)-N-methyl-butane-1,4-diamine] | > 6.00 |  | 
